≈ marks a conversion by molar mass, not a printed value.

For this series the following is noted: buffer; pH 7.4; 200.0 µM.
For the compound `Cc1ccc(OCCSc2nc3ncnc(N)c3[nH]2)cc1`, the kinetic solubility – broadly, the concentration staying in solution when a stock, usually in DMSO, is diluted into the medium – is 3.8 µg/mL (≈ 12.6 µM).
As to `Cc1ccc(C)c(OC(=O)C2CSC3(C)CCC(=O)N23)c1C` (configuration not stated), the kinetic solubility worked out at 44.2 µg/mL (≈ 138 µM).
As for `O=C(Nc1ccccc1C(=O)NC1CC1)c1ccccc1`, the figure is 16.7 µg/mL (≈ 59.6 µM); as for `CN(C)C(=O)Oc1cccc([N+](C)(C)C)c1.COS(=O)(=O)[O-]`, more than 50.2 µg/mL; as for `COCc1c(C(=O)OCc2c(C)noc2C)oc2ccccc12`, 33.2 µg/mL (≈ 105 µM).
`Cc1cc2cc(CCNC(=O)CCCc3ccccc3)c(=O)[nH]c2cc1C`: the solubility (kinetic) stood at 1.7 µg/mL (≈ 4.69 µM).
In turn, `CN(C)C(=S)Nc1ccc(S(=O)(=O)N2CCCCC2)cc1` showed a kinetic solubility of 47.1 µg/mL (≈ 144 µM). This solubility kinetic lies about 28-fold higher than the previous one.
With `Cc1cccc(C(=O)Nc2ccc(NC(=O)c3ccccc3)cc2)c1`, the solubility (kinetic) turned out to be 1 µg/mL (≈ 3.03 µM).
`Cc1ccc(C)c(OCCC(=O)NCCc2ccc(F)cc2)c1`: the solubility (kinetic) worked out at 31.5 µg/mL (≈ 99.9 µM).
For the compound `CC(=O)Nc1ccccc1NC(=O)c1ccccc1-c1ccccc1`, the kinetic solubility was more than 49.6 µg/mL.
Regarding `O=C(COC(=O)c1cccc(Br)c1)NCCC1=CCCCC1`, the solubility (kinetic) turned out to be 2.5 µg/mL (≈ 6.83 µM).
For `O=[N+]([O-])c1ccc(N2CCSCC2)cc1O`, the kinetic solubility amounted to 4.1 µg/mL (≈ 17.1 µM).
As for `NC(=S)C1COc2ccccc2O1` (configuration not stated), the solubility (kinetic) was more than 29.3 µg/mL.
For `COc1ccc(CNC(=O)c2cc(=O)c3cc(C)cc(C)c3o2)cc1`, the solubility (kinetic) was less than 0.7 µg/mL.
Compound `Cc1c(NC(=O)c2cc(S(=O)(=O)N3CCCCC3)ccc2Cl)c(=O)n(-c2ccccc2)n1C` registered a kinetic solubility of more than 73.3 µg/mL.
Turning to `CN(CCC(=O)c1ccccc1)CCC(=O)c1ccccc1`, the kinetic solubility worked out at 42.3 µg/mL (≈ 143 µM).
`O=C(CSc1nc(C2CC2)nc2ccccc12)N1CCCCC1` yielded a kinetic solubility of 46.9 µg/mL (≈ 143 µM).
In turn, `Cc1[nH]c2ccc(C(C)C)cc2c1CC(=O)O` gave a kinetic solubility of more than 34.7 µg/mL.
With `O=C(NCCOc1ccc(Cl)cc1)C1CCCCC1`, the kinetic solubility amounted to 14.9 µg/mL (≈ 52.9 µM).
As for `O=S(=O)(c1ccc(F)c(F)c1)N1CCN(c2ccccn2)CC1`, the solubility (kinetic) turned out to be 1.5 µg/mL (≈ 4.42 µM).
Regarding `O=C(CC1C(=O)NCCN1C(=O)Nc1ccccc1)Nc1ccc(F)cc1` (configuration not stated), the solubility (kinetic) amounted to 52.2 µg/mL (≈ 141 µM).
As for `CC(CN1CCCC1)OC(=O)c1cccc(F)c1.Cl` (configuration not stated), the figure is 39.6 µg/mL; as for `O=C(O)CC(CC(=O)Nc1ccc2ccccc2n1)c1ccccc1` (configuration not stated), more than 50.2 µg/mL; as for `COc1ccccc1NC(=O)N1C[C@@H]2C[C@@H](C1)c1cccc(=O)n1C2`, more than 50.9 µg/mL.
With `CCOc1ccc(-c2csc3nc[nH]c(=O)c23)cc1`, the solubility (kinetic) turned out to be 18.9 µg/mL (≈ 69.4 µM).
Compound `Cc1nc(NC(=O)CN2CCOCC2)sc1C(=O)N(C)C` returned a kinetic solubility of 40 µg/mL (≈ 128 µM).
`CN(CC(=O)Nc1cccc(F)c1)CC(=O)N1CCCCC1` had a kinetic solubility of more than 46.1 µg/mL.
`O=C1N=C(N2CCN(c3ccccc3)CC2)S/C1=C/c1ccco1` came in with a solubility (kinetic) of 17.4 µg/mL (≈ 51.3 µM).
For `O=C(O)CCNC(=O)/C(=C\c1ccco1)NC(=O)c1ccco1`, the solubility (kinetic) was more than 47.7 µg/mL.
As for `O=C(Nc1ccc(Cl)c(Cl)c1)c1ccc2c(c1)OCO2`, the figure is less than 0.7 µg/mL.
The compound `COC(=O)[C@@H](NC(=O)/C=C/c1ccc(OC)cc1)C(C)C` displayed a kinetic solubility of more than 43.7 µg/mL.
For `CCc1ccccc1NC(=S)N1CCN(c2ccccc2F)CC1`, the solubility (kinetic) was 4.4 µg/mL (≈ 12.8 µM).
The same measure for `COC(=O)c1ccc(CSc2cc(C)c3ccccc3n2)o1`: 3.4 µg/mL (≈ 10.8 µM); for `Cc1nc(SCC(=O)O)c(C#N)c(-c2ccco2)c1C(=O)N(C)C`: more than 51.8 µg/mL.
In turn, `Cc1ccc(Oc2ncccc2N)c2c1CCC2` displayed a solubility (kinetic) of 10.1 µg/mL (≈ 42 µM).
In the case of `CSc1cccc(NC(=S)NCCCO)c1`, the kinetic solubility amounted to 37.3 µg/mL (≈ 145 µM).
Compound `Cc1cc(C(=O)Cn2cnc3cc(F)ccc3c2=O)c(C)n1C1CC1` came in with a kinetic solubility of 0.9 µg/mL (≈ 2.65 µM).
On to `O=C(COC(=O)COc1ccc2c(c1)CCC2)Nc1ccccc1C(F)(F)F`, for which the kinetic solubility stood at 5.3 µg/mL (≈ 13.5 µM).
`Cc1ccc(S(=O)(=O)NC(C)C(=O)NCc2ccc(Cl)cc2)cc1` (configuration not stated) gave a kinetic solubility of 6.9 µg/mL (≈ 18.8 µM).
`S=C(NCCCN1CCOCC1)Nc1cccc(Cl)c1` yielded a kinetic solubility of more than 47.1 µg/mL.
As for `Cn1c(NC2CCCCC2)c(N=O)c(=O)n(C)c1=O`, the figure is more than 39.9 µg/mL.
`COc1ccc(NCC(=O)N/N=C/C(C)c2ccccc2)cc1` (configuration not stated) showed a solubility (kinetic) of more than 46.7 µg/mL.
In turn, `CC(=O)c1cccc(NC(=O)CCn2c(=S)oc3ccccc32)c1` returned a kinetic solubility of 0.8 µg/mL (≈ 2.35 µM).
The same measure for `Cc1ccccc1-c1nnc(SCC(=O)Nc2cccnc2Cl)o1`: more than 54.1 µg/mL; for `CCOc1ccc(NC(=O)c2ccc(Cl)c(NC(=O)c3ccco3)c2)cc1`: less than 0.4 µg/mL; for `O=C(c1ccc(F)cc1)N1CCOCC1`: more than 31.4 µg/mL.
Compound `Cc1ccc2nc(SCC(=O)c3ccccc3)nc(=O)n2c1` yielded a kinetic solubility of 33 µg/mL (≈ 106 µM).
The same measure for `Cc1ccc(C)c(OCCC(=O)OCC(=O)NC2CCCC2)c1`: 43.5 µg/mL (≈ 136 µM); for `O=C(CNC(=O)c1ccccc1Cl)OC1CCOC1=O` (configuration not stated): 42.1 µg/mL (≈ 141 µM).
`Cc1ccc(NC(=O)c2cccnc2)cc1C` showed a kinetic solubility of more than 33.9 µg/mL.
The compound `CC(=O)c1c(C(=O)O)c2ccccc2[nH]c1=O` returned a solubility (kinetic) of 34 µg/mL (≈ 147 µM).
For the compound `Cc1cccc(C(=O)Nc2ccc3ccccc3c2)c1`, the solubility (kinetic) is less than 0.6 µg/mL.
For `COC(=O)c1ccccc1NC(=S)N1CCOCC1`, the kinetic solubility came to 40.1 µg/mL (≈ 143 µM).
On to `Cc1cc(C)c(OCCN2CCOCC2)c(Cl)c1`, for which the kinetic solubility amounted to 26.6 µg/mL (≈ 98.6 µM).
The compound `Cc1cccc(Nc2nc(N)c([N+](=O)[O-])c(NCCO)n2)c1` returned a solubility (kinetic) of 19.8 µg/mL (≈ 65.1 µM).
`COc1ccc(NC(=O)COC(=O)CC2CCCCC2)cc1` came in with a solubility (kinetic) of more than 45.8 µg/mL.
The same measure for `Cc1ccccc1C(=O)N1CCC(C(=O)N2CCN(Cc3ccc4c(c3)OCO4)CC2)CC1`: 59.1 µg/mL (≈ 131 µM).
The same measure for `CC(O)c1cccc(NC(=O)CCCc2ccccc2)c1` (configuration not stated): 39 µg/mL (≈ 138 µM).
The compound `CC(=O)Nc1ccc(-c2nc3cc(Cl)ccc3o2)cc1` returned a kinetic solubility of less than 0.3 µg/mL.
With `O=c1[nH]c(=S)[nH]c2scc(-c3ccc(Br)cc3)c12`, the kinetic solubility turned out to be 9.1 µg/mL (≈ 26.8 µM).
`CCCCOc1ccc(C2=CSC3=NCCN23)cc1[N+](=O)[O-]`: the kinetic solubility was more than 47.9 µg/mL.
`CCN(Cc1ccccc1)C(=O)CS(=O)(=O)c1ccccc1` yielded a solubility (kinetic) of more than 47.6 µg/mL.
As to `O=C(NCCCl)C1Cc2c(ccc3ccccc23)O1` (configuration not stated), the kinetic solubility is 40.2 µg/mL (≈ 146 µM).
`COc1ccccc1N1CCN(CC(=O)NCc2ccc(Cl)cc2)CC1` gave a solubility (kinetic) of more than 56.1 µg/mL.
Regarding `CN(CC(=O)Nc1ccc(Cl)cc1)C1CCCCC1`, the solubility (kinetic) is 36 µg/mL (≈ 128 µM).
`Cc1ccc(C(C)C)c(OCCCN2CCc3ccccc3C2)c1.Cl`: the solubility (kinetic) was determined as 3.1 µg/mL. This solubility kinetic is about 12-fold lower than that of the compound before.
In turn, `CCOc1ccc(OCCC(=O)OCC(=O)NC2CC2)cc1` yielded a solubility (kinetic) of more than 46.1 µg/mL.
`CCOc1ncccc1C(=O)NCCCSc1ccccc1`: the solubility (kinetic) worked out at 34.2 µg/mL (≈ 108 µM).
In the case of `CCOC(=O)CSC1=NN2CCS(=O)(=O)N=C2S1`, the kinetic solubility was more than 46.4 µg/mL.
`O=C(CN1CCN(C(=O)c2ccccc2)CC1)NC(=O)NCCC1=CCCCC1`: the solubility (kinetic) was more than 59.8 µg/mL.
As for `Oc1cccc(C(=S)N2CCC(Cc3ccccc3)CC2)c1`, the figure is 15 µg/mL (≈ 48.2 µM); as for `Cc1cccc(C)c1NC(=O)C(=O)NCCc1c[nH]c2ccccc12`, 1.3 µg/mL (≈ 3.88 µM); as for `COc1ccc(C(=O)Nc2ccccc2C(=O)Nc2ccccn2)cc1`, less than 0.2 µg/mL.
In turn, `CCn1cc(S(=O)(=O)NCCc2ccc(F)cc2)cn1` came in with a solubility (kinetic) of more than 44.6 µg/mL.
In the case of `Cc1ccc(S(=O)(=O)N2CCC(C(=O)NCCCN3CCCC3=O)CC2)cc1`, the kinetic solubility came out at 51.9 µg/mL (≈ 127 µM).
With `O=[N+]([O-])c1ccc2nc(Cl)nc(-c3ccccc3)c2c1`, the solubility (kinetic) came out at 4.8 µg/mL (≈ 16.8 µM).
Compound `CCN(C(=S)NC(=O)Cc1ccc(OC)cc1)c1ccccc1` registered a kinetic solubility of 48.9 µg/mL (≈ 149 µM).
`O=C(NCc1ccc2c(c1)OCO2)c1ccco1` yielded a kinetic solubility of more than 36.8 µg/mL.
Compound `Cc1cc(C=O)c(C)n1C(C)C` returned a kinetic solubility of 23 µg/mL (≈ 139 µM).
As for `CCOC(=O)COc1nc(-c2ccc(Cl)cc2)cc(-c2ccco2)c1C#N`, the solubility (kinetic) was less than 0.4 µg/mL.
The compound `CCOC(=O)N1CCN(C(=O)c2ccc(S(=O)(=O)Nc3ccc(C)cc3)cc2)CC1` returned a solubility (kinetic) of more than 64.7 µg/mL.
Turning to `O=C(CN1CCOCC1)NNc1c2ccccc2nc2ccccc12`, the solubility (kinetic) is more than 50.5 µg/mL.
Consider `COc1ccc2[nH]cc(C(O)CN3CCN(c4ccccc4F)CC3)c2c1` (configuration not stated), for which the kinetic solubility is more than 55.4 µg/mL.
Take `Cc1ccc(Oc2nc3c(c(=O)n(C)c(=O)n3C)n2C)cc1C`: the solubility (kinetic) was 40 µg/mL (≈ 127 µM).
Take `O=C(COC(=O)CC1CCCC1)Nc1ccc(Br)cc1F`: the kinetic solubility came out at 19.2 µg/mL (≈ 53.6 µM).
The compound `Cc1ccccc1CC(=O)NC1CCCCCC1` yielded a kinetic solubility of 11.1 µg/mL (≈ 45.2 µM).
For `CCOC(=O)Cc1cc(=O)[nH]c(/N=C(\N)Nc2ccc(C)c(C)c2)n1`, the kinetic solubility worked out at 2.1 µg/mL (≈ 6.12 µM).
Turning to `Cn1c(N)c(C(=O)COC(=O)c2ccccc2C(=O)c2ccc(Cl)c([N+](=O)[O-])c2)c(=O)n(C)c1=O`, the kinetic solubility came out at 3.2 µg/mL (≈ 6.39 µM).
In turn, `COC(=O)CC(c1ccc(C(C)C)cc1)n1cccc1` (configuration not stated) gave a solubility (kinetic) of 2.5 µg/mL (≈ 9.21 µM).
In turn, `CCOc1ccc(S(=O)(=O)NCc2ccc3c(c2)OCO3)cc1` showed a kinetic solubility of 10.9 µg/mL (≈ 32.5 µM).
As to `CC(=O)c1c(C)cc(C)c(CSc2ccccn2)c1C`, the solubility (kinetic) came out at 20.5 µg/mL (≈ 71.8 µM).
`CCCCc1nc(C(N)=O)c2[nH]c(=O)n(-c3ccccc3F)c2n1` registered a kinetic solubility of 3.7 µg/mL (≈ 11.2 µM).
Take `Cc1ccc(C(=O)N2CCN(C34CC5CC(CC(C5)C3)C4)CC2)o1`: the kinetic solubility was more than 49.3 µg/mL.
The same measure for `O=C(COC(=O)c1cccnc1)Nc1cccc2ccccc12`: 42.1 µg/mL (≈ 137 µM); for `COC(=O)Cc1c(O)ccn(Cc2ccc(Cl)c(Cl)c2)c1=O`: more than 51.3 µg/mL.
The compound `O=c1[nH]c(=S)n(-c2ccccc2)c(O)c1C=NCCN1CCNCC1` came in with a solubility (kinetic) of more than 53.9 µg/mL.
Compound `Cc1cccc(NC(=O)CCN2CC(C)CC(C)C2)c1.Cl` (configuration not stated) had a kinetic solubility of more than 46.6 µg/mL.
Take `CC(=O)NCCC(=O)Nc1nc(-c2c[nH]c3ccccc23)cs1`: the solubility (kinetic) turned out to be 42.9 µg/mL (≈ 131 µM).
On to `COC(=O)C1CCCN1S(=O)(=O)c1ccc([N+](=O)[O-])cc1` (configuration not stated), for which the solubility (kinetic) is more than 47.1 µg/mL.
The compound `Cc1cccc(-c2nc3ccccc3c(=O)[nH]2)c1` returned a kinetic solubility of 4.2 µg/mL (≈ 17.8 µM).
As for `CN1CCN(c2nc3c(c(=O)n(C)c(=O)n3C)n2Cc2ccccc2F)CC1`, the figure is more than 58 µg/mL; as for `COc1ccc(C2(C#N)CCC(=O)N2c2ccccc2)cc1` (configuration not stated), 40.9 µg/mL (≈ 140 µM).

Source of the values: PubChem BioAssay AID1996.
